Reference: patent publication US20240254089A1, “MODULATORS OF MAS-RELATED G-PROTEIN RECEPTOR X4 AND RELATED PRODUCTS AND METHODS” (ESCIENT PHARMACEUTICALS, INC., priority 2020, published 2024)

target: T1, human MRGPR X4 (Homo sapiens, UniProt Q96LA9); experiment: MRGPR X4 antagonist activity, IP-One Gq HTRF assay in stably transfected HEK cells; format: cell-based; settings: not given
T1 construct: expressed in transfected cells
Procedure, shortened: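 IC50 comes from HTRF IP-1 accumulation in stably transfected HEK cells expressing human MRGPR X4. Compounds (10 uM top, 1:3 serial, 10 points) were co-incubated with 10 μM bilirubin, 20 μM deoxycholic acid or 100 μM conjugated bilirubin in LiCl-containing buffer, pH 8, for 1 h at 37 °C plus 30 min at room temperature.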

T1 sequence (Q96LA9 whole entry): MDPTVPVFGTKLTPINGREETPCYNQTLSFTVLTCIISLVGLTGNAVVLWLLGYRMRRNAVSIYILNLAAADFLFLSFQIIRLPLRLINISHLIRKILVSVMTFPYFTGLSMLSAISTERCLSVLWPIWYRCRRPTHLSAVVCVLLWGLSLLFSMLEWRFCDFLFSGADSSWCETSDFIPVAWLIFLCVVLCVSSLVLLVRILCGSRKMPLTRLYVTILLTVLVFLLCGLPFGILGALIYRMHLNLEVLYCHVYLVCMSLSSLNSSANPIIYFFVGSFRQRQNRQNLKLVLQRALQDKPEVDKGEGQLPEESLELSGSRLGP

| Structure (SMILES) | IC50 |
| --- | --- |
| O=C(NCCc1nnc2ccccn12)c1nn(Cc2ccc(Cl)cc2F)c2ccc(F)cc12 [Compound 572] | < 100 nM |
| O=C(NCCc1ccc(C(F)(F)F)cc1)c1cn(Cc2ccc(Cl)cc2)c2ccccc12 [Compound 208] | 1000 to 2500 nM |
| Cc1ccc(Cn2nc(C(=O)NCCc3cn4c(n3)SCC4)c3ccccc32)cc1 [Compound 41] | 100 to 500 nM |
| Cc1cc(Cn2nc(C(=O)NCCc3nc4c(s3)CCCC4)c3ccccc32)ccc1Cl [Compound 68] | 100 to 500 nM |
| Cc1cc(Cl)ccc1Cn1nc(C(=O)NCCc2nnc3ccccn23)c2ccccc21 [Compound 554] | < 100 nM |
| Cc1ccc(Cn2nc(C(=O)NCCc3nc4c(s3)CCCC4)c3cc(Cl)ccc32)cc1 [Compound 110] | 1000 to 2500 nM |
| Cc1ccccc1Cn1cc(C(=O)NCCc2cccnc2)c2ccccc21 [Compound 225] | > 2500 nM |
| O=C(NCc1cccc(F)c1F)c1nn(Cc2ccc(Cl)cc2)c2ccccc12 [Compound 360] | > 2500 nM |
| O=C(O)c1nn(Cc2ccc(OC(F)F)cc2)c2ccccc12 [Compound 325] | > 2500 nM |
| Cc1ncccc1CCNC(=O)c1nn(Cc2ccc(C(F)(F)F)cc2)c2ccccc12 [Compound 39] | 100 to 500 nM |
| O=C(NCCc1nnc2ccccn12)c1nn(Cc2cc3c(cc2Cl)OCO3)c2ccccc12 [Compound 411] | < 100 nM |
| Cc1ccc(CCNC(=O)c2nn(Cc3ccc(C(F)(F)F)cc3)c3ccccc23)cn1 [Compound 49] | 100 to 500 nM |
| Cc1ccc(Cn2cc(C(=O)NCCc3c[nH]c4ccccc34)c3ccccc32)cc1 [Compound 169] | 100 to 500 nM |
| Cc1ccc(Cn2nc(C(=O)NCCc3ccco3)c3ccccc32)cc1 [Compound 122] | 1000 to 2500 nM |
| O=C(O)c1nn(Cc2ccc(F)cc2)c2ccccc12 [Compound 331] | > 2500 nM |
| O=C(NCCc1nnc2ccccn12)c1nn(Cc2cnc(C(F)(F)F)s2)c2ccccc12 [Compound 501] | 100 to 500 nM |
| O=C(NCCc1nc2c(s1)CCCC2)c1nn(Cc2ccc(Cl)cc2F)c2ccccc12 [Compound 131] | 100 to 500 nM |
| O=C(NCCc1nnc2ccccn12)c1nn(CCCC2CCCC2)c2ccccc12 [Compound 487] | 100 to 500 nM |
| Cn1ncc2cc(Cn3nc(C(=O)NCCc4nnc5ccccn45)c4ccccc43)ccc21 [Compound 452] | 501 to 1000 nM |
| O=C(NCCc1ccc(Cl)c(F)c1)c1cn(CCN2CCC(F)(F)CC2)c2ccccc12 [Compound 223] | 1000 to 2500 nM |
| Cc1ccc(Cn2nc(C(=O)NCCc3nnc4ccccn34)c3ccccc32)cc1 [Compound 528] | < 100 nM |

| Structure (SMILES) | IC50 |
| --- | --- |
| Cc1cccc(CCNC(=O)c2nn(Cc3ccc(Cl)cc3)c3ccccc23)c1 [Compound 362] | 1000 to 2500 nM |
| Cc1[nH]c2ccc(O)cc2c1CCNC(=O)c1nn(Cc2ccc(Cl)cc2)c2ccc(F)cc12 [Compound 534] | < 100 nM |
| COc1ccc2ccccc2c1Cn1nc(C(=O)NCCc2nnc3ccccn23)c2ccccc21 [Compound 453] | 1000 to 2500 nM |
| Cc1ccc(Cn2nc(C(=O)NCCc3nc4c(s3)CCC4)c3ccccc32)cc1 [Compound 36] | 100 to 500 nM |
| Cc1ccc(Cn2nc(C(=O)NCCc3nc4c(s3)CCCC4)c3ccccc32)cc1 [Compound 28] | 100 to 500 nM |
| O=C(NCCc1nnc2ccccn12)c1nn(CCC2CCCC2)c2ccccc12 [Compound 504] | 501 to 1000 nM |
| O=C(NCCn1cc(-c2ccccc2)nn1)c1nn(Cc2ccc(Cl)cc2)c2ccccc12 [Compound 141] | 501 to 1000 nM |
| O=C(NCCc1nc2c(s1)CCCC2)c1nn(Cc2ccccc2Cl)c2ccccc12 [Compound 95] | 1000 to 2500 nM |
| O=C(NCCc1noc2ccccc12)c1nn(Cc2ccc(Cl)cc2)c2ccccc12 [Compound 45] | 100 to 500 nM |
| O=C(NCCc1nnc2ccccn12)c1nn(Cc2ccc(Cl)cc2)c2cccc(F)c12 [Compound 15] | < 100 nM |
| Cc1ncccc1CCNC(=O)c1cn(Cc2ccc(Cl)cc2)c2ccccc12 [Compound 152, 1-(4-chlorobenzyl)-N-(2-(2-methylpyridin-3-yl)ethyl)-1H-indole-3-carboxamide] | < 100 nM |
| O=C(NCCc1ccc(Cl)c(Cl)c1)c1cn(Cc2ccc(Cl)cc2)c2ccccc12 [Compound 344] | > 2500 nM |
| O=C(NCCc1nnc2ccccn12)c1nn(Cc2ccc(Cl)cc2)c2c(F)cccc12 [Compound 540] | < 100 nM |
| Cc1[nH]c2ccc(O)cc2c1CCNC(=O)c1nn(Cc2ccc(Cl)cc2)c2ccccc12 [Compound 416] | < 100 nM |
| CC(C)c1ccc(Cn2nc(C(=O)NCCc3ccccn3)c3ccccc32)cc1 [Compound 91] | 501 to 1000 nM |
| Cn1ncc2cccc(Cn3nc(C(=O)NCCc4nnc5ccccn45)c4ccccc43)c21 [Compound 460] | 501 to 1000 nM |
| O=C(NCCOc1cccnc1)c1nn(Cc2ccc(Cl)cc2)c2ccccc12 [Compound 336] | 100 to 500 nM |
| CC(=O)c1cccc(Cn2cc(C(=O)NCCc3cccnc3)c3ccccc32)c1 [Compound 232] | > 2500 nM |
| O=C(NCc1ccc2ccccc2n1)c1nn(Cc2ccc(Cl)cc2)c2ccccc12 [Compound 423] | > 2500 nM |
| Cc1ccc(Cn2nc(C(=O)NCCc3ccncc3)c3ccccc32)cc1 [Compound 78] | 501 to 1000 nM |
| Cc1ccc(Cn2nc(C(=O)NCCc3nc4c(s3)CCCC4)c3c(C#N)cccc32)cc1 [Compound 60] | 100 to 500 nM |

| Structure (SMILES) | IC50 |
| --- | --- |
| O=C(NCCc1nnc2n1CCCCC2)c1nn(Cc2ccc(Cl)cc2)c2ccc(Cl)cc12 [Compound 8] | < 100 nM |
| COc1ncccc1CCNC(=O)c1cn(Cc2ccc(Cl)cc2)c2ccccc12 [Compound 155] | 100 to 500 nM |
| CC(C)(C)c1ccc(Cn2nc(C(=O)NCCc3ccccn3)c3ccccc32)cc1 [Compound 112] | 1000 to 2500 nM |
| O=C(Nc1cnc2ccccc2c1)c1nn(Cc2ccc(Cl)cc2)c2ccccc12 [Compound 134] | 1000 to 2500 nM |
| O=C(NCc1ccnnc1)c1nn(Cc2ccc(Cl)cc2)c2ccccc12 [Compound 405] | > 2500 nM |
| Cc1ccc(Cn2nc(C(=O)NCCc3nc4ccccc4o3)c3ccccc32)cc1 [Compound 103] | 1000 to 2500 nM |
| O=C(NCCNC(=O)c1nn(Cc2ccc(Cl)cc2)c2ccccc12)c1ccccc1 [Compound 400] | 100 to 500 nM |
| O=C(NCCc1cccnc1)c1cn(Cc2ccccc2Cl)c2ccccc12 [Compound 183] | 501 to 1000 nM |
| O=C(NCCc1nnc2ccccn12)c1nn(Cc2ccc(F)cc2)c2ccccc12 [Compound 51] | 100 to 500 nM |
| O=C(NCCc1nnc2ccccn12)c1nn(Cn2nnc3ccccc32)c2ccccc12 [Compound 465] | 100 to 500 nM |
| O=C(NCCc1nc2c(s1)CCCC2)c1nn(Cc2cccc(F)c2)c2ccccc12 [Compound 81] | 501 to 1000 nM |
| O=C(NCCc1nc2c(s1)CCCC2)c1nn(Cc2ccc(OC(F)F)cc2)c2ccccc12 [Compound 82] | 501 to 1000 nM |
| Cc1ccc(Cn2nc(C(=O)NCCc3nc4c(s3)COCC4)c3ccccc32)cc1 [Compound 65] | 100 to 500 nM |
| COc1ccc(CCNC(=O)c2cn(Cc3cccc(F)c3)c3ccccc23)cn1 [Compound 216] | 1000 to 2500 nM |
| O=C(NCCn1cc(-c2cccnc2)nn1)c1nn(Cc2ccc(Cl)cc2)c2ccccc12 [Compound 144, 1-(4-chlorobenzyl)-N-(2-(4-(pyridin-3-yl)-1H-1,2,3-triazol-1-yl)ethyl)-1H-indazole-3-carboxamide] | 100 to 500 nM |
| Cc1ccc(Cn2nc(C(=O)NCCc3cccnc3)c3c(C#N)cccc32)cc1 [Compound 67] | 100 to 500 nM |
| Cc1ccc(Cn2nc(C(=O)NCCc3cnoc3)c3ccccc32)cc1 [Compound 128] | > 2500 nM |
| COc1cccc(Cn2nc(C(=O)NCCc3nnc4ccccn34)c3ccccc32)n1 [Compound 434] | 1000 to 2500 nM |
| CS(=O)(=O)c1ccccc1CNC(=O)c1nn(Cc2ccc(Cl)cc2)c2ccccc12 [Compound 379] | > 2500 nM |
| O=C(NCCc1ccc(F)cc1)c1cn(Cc2ccc(Cl)cc2)c2ccccc12 [Compound 179] | 100 to 500 nM |
| COc1cc(Cn2nc(C(=O)O)c3ccccc32)ccc1Cl [Compound 329] | > 2500 nM |

same assay, conditions: versus 20 μM deoxycholic acid agonist; HEK cells expressing human MRGPR X4; read-out: MRGPRX4 Antagonist Activity

| Structure (SMILES) | IC50 |
| --- | --- |
| Cc1ccc(C(=O)Cn2nc(C(=O)NCCc3nnc4ccccn34)c3ccccc32)cc1 [Compound 468] | 1000 to 2500 nM |
| Cc1cccc(NC(=O)CS(=O)(=O)c2cn(Cc3ccc(Cl)cc3)c3ccccc23)c1 [Compound 243] | 501 to 1000 nM |
| O=S(=O)(NCCc1ccc(Cl)c(F)c1)c1cn(Cc2ccc(Cl)cc2)c2ccccc12 [Compound 314] | 1000 to 2500 nM |
| O=C(CS(=O)(=O)c1cn(Cc2ccc(Cl)cc2)c2ccccc12)Nc1ccccc1F [Compound 237, 2-((1-(4-chlorobenzyl)-1H-indol-3-yl)sulfonyl)-N-(2-fluorophenyl)acetamide] | 100 to 500 nM |
| O=C(NS(=O)(=O)c1cccc(OC(F)(F)F)c1)c1nn(Cc2ccc(OC(F)F)cc2)c2ccccc12 [Compound 281] | 1000 to 2500 nM |
| Cc1cccc(S(=O)(=O)NC(=O)c2nn(Cc3ccccc3C#N)c3ccccc23)c1 [Compound 260] | 501 to 1000 nM |
| Cc1cccc(S(=O)(=O)NC(=O)c2nn(Cc3ccc(C(F)(F)F)cc3Cl)c3ccccc23)c1 [Compound 306] | > 2500 nM |
| Cc1cc(Cl)ccc1Cn1nc(C(=O)O)c2ccccc21 [Compound 324] | > 2500 nM |
| COc1ccc(C)c(S(=O)(=O)NC(=O)c2nn(Cc3cccc(F)c3)c3ccccc23)c1 [Compound 257] | > 2500 nM |
| Cc1ccc(CS(=O)(=O)NC(=O)c2nn(Cc3ccc(Cl)cc3)c3ccccc23)cc1 [Compound 264] | 501 to 1000 nM |
| O=C(CS(=O)(=O)c1cn(Cc2ccc(Cl)cc2)c2ccccc12)Nc1ccc(Cl)cc1Cl [Compound 251] | 1000 to 2500 nM |
| Cc1cccc(S(=O)(=O)NC(=O)c2nn(Cc3ccc(Cl)cc3)c3ccccc23)c1 [Compound 279] | 1000 to 2500 nM |
| O=C(NCC1(c2cccnc2)CC1)c1cn(Cc2ccc(Cl)cc2)c2ccccc12 [Compound 230] | > 2500 nM |
| Cc1cccc(S(=O)(=O)NC(=O)c2nn(Cc3ccc(F)cc3)c3ccccc23)c1 [Compound 292] | 1000 to 2500 nM |
| O=C(NCCOCc1ccccc1)c1nn(Cc2ccc(Cl)cc2)c2ccccc12 [Compound 337] | > 2500 nM |
